According to publication PMC6406907, “A H2AX–CARP-1 Interaction Regulates Apoptosis Signaling Following DNA Damage” (Cancers, 2019):
No end group written: not given here. HA = not defined here

Tested on: HeLa cells
Assay: Transduction/localization of TAT-tagged proteins, HeLa
Format: cell-based, human
Details: 300 μg/mL, confocal
Method: Cells were plated onto chamber slides one day before treatment. Following treatment of cells with respective compounds, the adherent cells were fixed with 5% formaldehyde for 10 min and then washed with phosphate buffered saline (PBS). Samples were blocked (0.5% NP-40, 5% milk powder, 1% fetal bovine serum) for 30 min. After a single wash with PBS, cells were incubated with primary antibodies for 45 to 60 min. Coverslips were washed with PBS and then incubated with secondary antibodies for another 45 to 60 min. They were then washed with PBS and mounted with 0.1 μg/mL 4′,6′-diamidino-2-phenylindole (DAPI) containing mounting solution. […]
We further tested whether and the extent to which transient and ectopic expression of CARP-1 (636–650) peptide would also interfere with the cell-growth inhibition by Adriamycin. […] The wild-type MDA-MB-468 or HeLa cells were pre-incubated with His-TAT-HA-EGFP or His-TAT-HA-CARP-1 (636–650) proteins, and presence of GFP and CARP-1 (636–650) was determined by immuno-cytochemical staining followed by photography using a confocal microscope as above. […]
Figure S9. […] Multiple cells from each of the confocal images in the γH2AX column of Figure 8C were subjected to quantitation for levels of γH2AX. The quantitation of the images of stained cells was carried out by using ImageJ software (imagej.nih.gov/ij/plugins/track/jacop2). […]

For “His-TAT-HA-CARP-1 (636–650): His-TAT-HA-tagged CARP-1 (636–650) peptide, >95% purity, commercially synthesized ({His-TAT-HA}-PKTMKVNDLRKELES; reading uncertain; UniProt Q8IX12 636-650, looked up, fragment)”, the “cellular localization after transduction” value was “predominantly present in the cytoplasmic region”.
